Assay results as given in patent US12577267B2, “Pyrimidine compounds for use as MAP4K1 inhibitors” (GLENMARK SPECIALITY S.A., priority 2021, dated 2026).
Structures can show the parent of a compound that is named as a salt. Where two headings read alike, the source gives them in different places.

Target: MAP4K-1 enzyme (Homo sapiens, UniProt Q92918)
Assay: FRET one step binding assay (tracer displacement)
Conditions: for inhibition at 1 µM / % Inhibition at 1 μM: 1 μM compound; for inhibition at 10 µM / % Inhibition at 10 μM: 10 μM compound
Protocol: This is a one step binding assay based on the binding and displacement of the labeled tracer, where compound addition is followed by addition of the anti-GST tagged europium (Eu) as the donor and Alexa Fluor-labeled tracer as the acceptor.
Test compounds were dissolved in dimethylsulfoxide (DMSO) to prepare 10.0 mM stock solutions and diluted to the desired concentration. The final concentration of DMSO in the reaction was 3% (v/v). The assay mixture was prepared by mixing 2 nM of the Eu-Anti-GST Antibody and 5 nM MAP4K-1 enzyme in the Kinase buffer containing 50 mM HEPES (pH 7.5), 10 mM MgCl2, 1 mM EGTA, 0.01% Brij-35 with or without the desired concentration of the compound. The reaction was incubated on ice for 15 min. […] After shaking for 5 min the reaction was further incubated for 1 hour at room temperature and this was kept at 4° C. and read on ARTEMIS reader as per the kit instructions (Thermo). […] The activity was calculated as percent of control reaction. IC50 values were calculated from dose response curve by nonlinear regression analysis using GraphPad Prism software.

MAP4K-1 enzyme, sequence (Q92918 whole entry): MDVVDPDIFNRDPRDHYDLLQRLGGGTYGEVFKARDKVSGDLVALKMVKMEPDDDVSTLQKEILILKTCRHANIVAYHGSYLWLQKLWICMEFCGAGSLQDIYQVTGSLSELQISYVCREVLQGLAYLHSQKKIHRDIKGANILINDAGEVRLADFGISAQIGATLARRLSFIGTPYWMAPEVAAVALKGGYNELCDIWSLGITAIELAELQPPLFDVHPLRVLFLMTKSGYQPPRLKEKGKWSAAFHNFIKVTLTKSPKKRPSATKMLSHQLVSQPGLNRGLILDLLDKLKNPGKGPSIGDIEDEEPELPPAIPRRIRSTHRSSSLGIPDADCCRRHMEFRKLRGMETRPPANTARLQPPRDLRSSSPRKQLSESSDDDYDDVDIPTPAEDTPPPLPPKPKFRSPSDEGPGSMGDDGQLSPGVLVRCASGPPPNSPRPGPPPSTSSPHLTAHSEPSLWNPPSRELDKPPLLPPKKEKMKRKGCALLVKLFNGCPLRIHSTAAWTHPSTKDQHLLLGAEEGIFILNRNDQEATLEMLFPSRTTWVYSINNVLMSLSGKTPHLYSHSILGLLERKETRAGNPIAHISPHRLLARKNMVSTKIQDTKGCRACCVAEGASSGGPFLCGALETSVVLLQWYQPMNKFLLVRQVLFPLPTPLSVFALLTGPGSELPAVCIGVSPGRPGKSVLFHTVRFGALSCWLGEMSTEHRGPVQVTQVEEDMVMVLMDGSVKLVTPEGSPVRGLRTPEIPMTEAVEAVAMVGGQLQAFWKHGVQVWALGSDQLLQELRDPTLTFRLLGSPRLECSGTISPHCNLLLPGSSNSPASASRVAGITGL

Row | IC50 (read-out: IC50) [nM] | SMILES | inhibition at 1 µM [%] | inhibition at 10 µM [%] | IC50 (IC50 (nM)) [nM] | % Inhibition at 1 μM [%] | % Inhibition at 10 μM [%]
1 |  | COc1cc2c(cc1Nc1ncc(Cl)c(Nc3ccc(OS(=O)(=O)F)nc3P(C)(C)=O)n1)CN(C)CC2 [Example 21, 5-((5-Chloro-2-((6-methoxy-2-methyl-1,2,3,4-tetrahydroisoquinolin-7-yl)amino)pyrimidin-4-yl)amino)-6-(dimethylphosphoryl)pyridin-2-yl sulfofluoridate dihydrochloride] | 79.2 | 81.6 | < 50 |  | 
2 |  | COc1cc2c(cc1Nc1ncc(Cl)c(Nc3cc(F)c(OS(=O)(=O)F)cc3P(C)(C)=O)n1)CN(C)CC2 [Example 27, 4-((5-Chloro-2-((6-methoxy-2-methyl-1,2,3,4-tetrahydroisoquinolin-7-yl)amino)pyrimidin-4-yl)amino)-5-(dimethylphosphoryl)-2-fluorophenyl sulfofluoridate dihydrochloride] | 81.1 | 82.6 | < 50 |  | 
3 |  | CCN1CCc2cc(OC)c(Nc3ncc(Cl)c(Nc4ccc(OS(=O)(=O)F)cc4P(C)(C)=O)n3)cc2C1 [Example 9, 4-((5-Chloro-2-((2-ethyl-6-methoxy-1,2,3,4-tetrahydroisoquinolin-7-yl)amino)pyrimidin-4-yl)amino)-3-(dimethylphosphoryl) phenyl sulfofluoridate dihydrochloride] | 78.5 | 78.8 | < 50 |  | 
4 |  | COc1cc2c(cc1Nc1ncc(Cl)c(Nc3ccc(OS(=O)(=O)F)cc3P(C)(C)=O)n1)CN(C)C(C)(C)C2 [Example 25, 4-((5-Chloro-2-((6-methoxy-2,3,3-trimethyl-1,2,3,4-tetrahydroisoquinolin-7-yl)amino)pyrimidin-4-yl)amino)-3-(dimethylphosphoryl)phenyl sulfofluoridate dihydrochloride] | 85.9 | 90.7 | < 50 |  | 
5 |  | Cn1nc(Nc2ncc(Cl)c(Nc3ccc(OS(=O)(=O)F)cc3P(C)(C)=O)n2)c2c1CNC2 [Example 41, 4-((5-Chloro-2-((1-methyl-1,4,5,6-tetrahydropyrrolo[3,4-c]pyrazol-3-yl)amino)pyrimidin-4-yl)amino)-3-(dimethylphosphoryl)phenyl sulfofluoridate hydrochloride] | 90.4 | 85 | < 50 |  | 
6 | < 50 | COc1cc2c(cc1Nc1ncc(Cl)c(Nc3ccc(C(F)F)cc3P(C)(C)=O)n1)CN(C)CC2 [Example 54, (2-((5-Chloro-2-((6-methoxy-2-methyl-1,2,3,4-tetrahydroisoquinolin-7-yl)amino)pyrimidin-4-yl)amino)-5-(difluoromethyl)phenyl)dimethylphosphine oxide] | 93.4 | 93.7 |  |  | 
7 |  | COc1cc2c(cc1Nc1ncc(Cl)c(Nc3cc(OS(=O)(=O)F)ccc3P(C)(C)=O)n1)CN(C)CC2 [Example 18, 3-((5-Chloro-2-((6-methoxy-2-methyl-1,2,3,4-tetrahydroisoquinolin-7-yl)amino)pyrimidin-4-yl)amino)-4-(dimethylphosphoryl)phenyl sulfurofluoridate dihydrochloride] | 87.3 | 83.2 | < 50 |  | 
8 |  | [2H]C([2H])([2H])Oc1cc2c(cc1Nc1ncc(Cl)c(Nc3ccc(OS(=O)(=O)F)cc3P(C)(C)=O)n1)C([2H])([2H])NCC2 [Example 40, 4-((5-Chloro-2-((6-methoxy-d3-1,2,3,4-tetrahydroisoquinolin-7-yl-1,1-d2)amino)pyrimidin-4-yl)amino)-3-(dimethylphosphoryl)phenyl sulfofluoridate dihydrochloride] | 83.3 | 84 | < 50 |  | 
9 |  | COc1cc2c(cc1Nc1ncc(Cl)c(Nc3ccc(OS(=O)(=O)F)cc3P(C)(C)=O)n1)COCC2 [Example 28, 4-((5-Chloro-2-((6-methoxyisochroman-7-yl)amino)pyrimidin-4-yl)amino)-3-(dimethylphosphoryl)phenyl sulfofluoridate hydrochloride] | 69.7 | 75.9 | < 50 |  | 
10 |  | COc1cc2c(cc1Nc1ncc(Cl)c(Nc3ccc(N(C)S(=O)(=O)F)cc3P(C)(C)=O)n1)C(C)N(C)CC2 (racemic) [Example 44, ±(4-((5-Chloro-2-((6-methoxy-1,2-dimethyl-1,2,3,4-tetrahydroisoquinolin-7-yl)amino)pyrimidin-4-yl)amino)-3-dimethylphosphoryl)phenyl) (methyl)sulfamoylfluoride dihydrochloride] | 81.6 | 79.6 | < 50 |  | 
11 |  | Cl.Cl.[2H]C([2H])([2H])Oc1cc2c(cc1Nc1ncc(Cl)c(Nc3ccc(OS(=O)(=O)F)cc3P(C)(C)=O)n1)CN(C)CC2 [Example 5, 4-((5-Chloro-2-((6-(methoxy-d3)-2-methyl-1,2,3,4-tetrahydroisoquinolin-7-yl)amino)pyrimidin-4-yl)amino)-3-(dimethylphosphoryl)phenyl sulfurofluoridate dihydrochloride] | 78.1 | 82.5 | < 50 |  | 
12 |  | CP(C)(=O)c1cc(OS(=O)(=O)F)ccc1Nc1nc(Nc2cc3n(n2)CCNC3)ncc1Cl [Example 42, 4-((5-Chloro-2-((4,5,6,7-tetrahydropyrazolo[1,5-a]pyrazin-2-yl)amino)pyrimidin-4-yl)amino)-3-(dimethylphosphoryl)phenyl sulfofluoridate dihydrochloride] | 84 | 83 | < 50 |  | 
13 |  | COc1cc2c(cc1Nc1ncc(Cl)c(Nc3ccc(OS(=O)(=O)F)cc3P(C)(C)=O)n1)C(C)N(C)CC2 (single isomer, unassigned; isomer 1) [Example 29, 4-((5-Chloro-2-((6-methoxy-1,2-dimethyl-1,2,3,4-tetrahydroisoquinolin-7-yl)amino)pyrimidin-4-yl)amino)-3-(dimethylphosphoryl)phenyl sulfofluoridate dihydrochloride (Isomer 1)] | 76.5 | 76.9 | < 50 |  | 
14 | < 50 | COc1cc2c(cc1Nc1ncc(Cl)c(Nc3ccc(S(C)(=N)=O)cc3P(C)(C)=O)n1)CN(C)CC2 (stereo not drawn) [Example 58, (2-((5-Chloro-2-((6-methoxy-2-methyl-1,2,3,4-tetrahydroisoquinolin-7-yl)amino)pyrimidin-4-yl)amino)-5-(S-methylsulfonimidoyl)phenyl)dimethylphosphine oxide] | 96.6 | 96.4 |  |  | 
15 | < 50 | COc1cc2c(cc1Nc1ncc(Cl)c(Nc3ccc(C(F)(F)F)cc3P(C)(C)=O)n1)CN(C)CC2 [Example 55, (2-((5-Chloro-2-((6-methoxy-2-methyl-1,2,3,4-tetrahydroisoquinolin-7-yl)amino)pyrimidin-4-yl)amino)-5-(trifluoromethyl)phenyl) dimethylphosphine oxide] | 94.6 | 95.3 |  |  | 
16 |  | COc1cc2c(cc1Nc1ncc(Cl)c(Nc3cc(OS(=O)(=O)F)ccc3P(C)(C)=O)n1)C(C)N(C)CC2 (single isomer, unassigned; isomer 1) [Example 31, 3-((5-Chloro-2-((6-methoxy-1,2-dimethyl-1,2,3,4-tetrahydroisoquinolin-7-yl)amino)pyrimidin-4-yl)amino)-4-(dimethylphosphoryl)phenyl sulfofluoridate dihydrochloride (Isomer 1)] | 84.4 | 89 | < 50 |  | 
17 |  | COc1cc2c(cc1Nc1ncc(Cl)c(Nc3ccc(OS(=O)(=O)F)cc3P(C)(C)=O)n1)CNCC2 [Example 38, 4-((5-Chloro-2-((6-methoxy-1,2,3,4-tetrahydroisoquinolin-7-yl)amino)pyrimidin-4-yl)amino)-3-(dimethylphosphoryl)phenylsulfofluoridate dihydrochloride] | 84.5 | 85.7 | < 50 |  | 

Row | SMILES | IC50 (read-out: IC50) [nM] | inhibition at 1 µM [%] | inhibition at 10 µM [%] | IC50 (IC50 (nM)) [nM] | % Inhibition at 1 μM [%] | % Inhibition at 10 μM [%]
18 | COc1cc2c(cc1Nc1ncc(Cl)c(Nc3cnc(OS(=O)(=O)F)cc3P(C)(C)=O)n1)CN(C)CC2 [Example 37, 5-((5-Chloro-2-((6-methoxy-2-methyl-1,2,3,4-tetrahydroisoquinolin-7-yl)amino)pyrimidin-4-yl)amino)-4-(dimethylphosphoryl)pyridin-2-ylsulfofluoridate] | < 50 |  |  |  | 84.45 | 84.73
19 | COc1nc2c(cc1Nc1ncc(Cl)c(Nc3ccc(OS(=O)(=O)F)cc3P(C)(C)=O)n1)CN(C)CC2 [Example 22, 4-((5-Chloro-2-((2-methoxy-6-methyl-5,6,7,8-tetrahydro-1,6-naphthyridin-3-yl)amino)pyrimidin-4-yl)amino)-3-(dimethylphosphoryl)phenyl sulfofluoridate] | < 50 |  |  |  | 75.12 | 82.60
